Measured values reported in patent US20100204117A1, “CGRP AS A THERAPEUTIC AGENT” (priority 2008, published 2010).
No end group written: not given here.

How the values were obtained:
HIV-1IIIB = assay: HIV-1 antiviral assay in CEM-SS cells (MTS readout); type: cell-based
[1] = tested on: hepatitis B virus (HBV) ayw strain; assay: HBV assay in HepG2-2.2.15 cells (secreted HBV DNA, TaqMan PCR); type: cell-based; conditions: 10 micrograms per ml, six days
spleen cells = assay: Th1/Th2 cytokine profiling assay (Ovalbumin-restimulated spleen cells, CBA kit); type: cell-based, Balb/c mice; conditions: 10 micrograms per ml; Ovalbumin restimulation; 72 hours
Experimental: The Balb/c mice (originated in 1923, it is a popular strain and is used in many different research disciplines. […] On day 50, spleens of the mice were harvested (3 weeks after last boost with Ovalbumin). […] Thereafter, additional Ovalbumin was added to the cells at 10 micrograms/ml for in vitro restimulation of the cells. 72 hours later, cell supernatants were harvested and assayed using the Becton Dickinson Mouse Th1/Th2 Cytokine CBA Kit. This kit can be used to measure Interleukin-2 (IL-2), Interleukin-4 (IL-4), Interleukin-5 (IL-5), Interferon-γ (IFN-γ), and Tumor Necrosis Factor-α (TNF-α) protein levels in a single sample. The kit performance has been optimized for analysis of physiologically relevant concentrations ([…] levels) of specific cytokine proteins in tissue culture supernatants and serum samples.

[2] = tested on: Primary Human endothelial cells (HUVEC); assay: Endothelial cell migration assay; type: cell-based; conditions: 10 micrograms per ml, 22 hours
HUVEC = assay: Endothelial tube formation assay; type: cell-based, human; conditions: 10 micrograms per ml, 20 hours
HCMV strain AD169 = assay: HCMV plaque formation assay in MRC-5 cells

In the case of CC(C)(C)NC(=O)[C@@H]1CN(Cc2cccnc2)CCN1C[C@@H](O)C[C@@H](Cc1ccccc1)C(=O)N[C@H]1c2ccccc2C[C@H]1O [indinavir], the “antiviral activity of positive control compounds (HIV-1)” value (HIV-1IIIB) is reported as “expected levels of antiviral activity”.

With Cc1cn([C@H]2C[C@H](N=[N+]=[N-])[C@@H](CO)O2)c(=O)[nH]c1=O [AZT] the “antiviral activity of positive control compounds (HIV-1)” value (HIV-1IIIB) was “expected levels of antiviral activity”.

“Ala-Cys-Asn-Thr-Ala-Thr-Cys-Val-Thr-His-Arg-Leu-Ala-Gly-Leu-Leu-Ser-Arg-Ser-Gly-Gly-Met-Val-Lys-Ser-Asn-Phe-Val-Pro-Thr-Asn-Val-Gly-Ser-Lys-Ala-Phe-NH2 (ACNTATCVTHRLAGLLSRSGGMVKSNFVPTNVGSKAF-NH2; ends and bridges not checked) [peptide 1]” was tested, and the “inhibition of HBV replication as compared to the virus control infection” value [1] was 19.3%, the “IFNγ spleen cells; TH1 response (% of control)” value (spleen cells) was 31.9 % of control and the “IL-2 spleen cells (% of control)” value (spleen cells) was 104.8 % of control. For the same molecule, the “IL-4 spleen cells; TH2 response (% of control)” value (spleen cells) was 90.3 % of control, the “IL-5 spleen cells; TH2 response (% of control)” value (spleen cells) was 40.1 % of control and the “TNF-a spleen cells; TH1 response (% of control)” value (spleen cells) was 84.0 % of control. The “inhibition of the migration of human endothelial cells” value [2] was “did not inhibit”, the “inhibition of the tube formation of human endothelial cells” value (HUVEC) was 12% and the “inhibition of HCMV plaque formation as compared to the virus control experiment” value (HCMV strain AD169; 10 micrograms per ml, 7-10 days) was “did not show any inhibition”.

Nc1nc(O)c2ncn(COC(CO)CO)c2n1 [Ganciclovir, reference compound] was tested, and the “antiviral activity of positive control compound (HCMV)” value (HCMV strain AD169; positive control) was “expected levels of antiviral activity”.
